# Patent US6287840A (Axys Pharmaceuticals, Inc., priority 1999, dated 2001)
# Like-named read-outs stand apart in the source and are kept apart here.
# What was measured:
# [1] = system: mouse malarial parasite Plasmodium vinckei; experiment: In vitro protease activity of malarial parasite, substrate Z-Phe-Arg-AMC; type: biochemical; conditions: read-out: P. vinckei IC50 (murine)
# Description: (§1) The following table summarizes the comparative IC50 values for selected cysteine protease inhibitors against the human malarial parasite Plasmodium falciparum and the mouse malarial parasite Plasmodium vinckei. The substrate used to measure in vitro protease activity was Z-Phe-Arg-AMC.
# [2] = system: human malarial parasite Plasmodium falciparum; experiment: as above; type: biochemical; conditions: read-out: P. falciparum IC50 (human)
# Description: as §1
# [3] = molecular target: T1, Cathepsin L from rat liver (Rattus norvegicus, UniProt P07154); experiment: Inhibition of cathepsin L, Z-Phe-Arg-AMC fluorescence progress curves; type: biochemical; conditions: for Ki: corrected for substrate; for k/KI (kirr/KI): values without asterisk
# T1 construct: Cathepsin L from rat liver; from tissue; host or cells: rat liver
# How it was run: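 Progress curves of AMC release (380/460 nm) over at least 3 inactivation half-times were fitted to kobs, reported as kobs/[I] or, via 1/[I] vs 1/kobs, kirr, KI (substrate-corrected) and kirr/KI.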
# cruzain, from T. cruzi = cruzain, from T. cruzi (Trypanosoma cruzi, UniProt P25779); experiment: Inhibition of cruzain, as for cathepsin L; type: biochemical; conditions: for kobs /[I]* (approximate second-order inactivation constant): values marked *
# How it was run: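 Run as for cathepsin L with 1 nM cruzain in 50 mM phosphate pH […], 2.5 mM DTT, 2.5 mM EDTA, 5 μM Z-Phe-Arg-AMC, at 25 °C, inhibitors 30-0.001 μM; fluorescence (ex 380/em 460 nm) followed continuously. kobs fitted from progress curves and kobs/[I] reported; selected compounds gave kirr, KI, kirr/KI, with KI corrected by (1+[S]/Km).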
# [4] = system: Trypanosoma brucei extracellular bloodstream forms; experiment: In vitro antiprotozoal activity, Trypanosoma brucei; type: cell-based
# Method: (§2) In this table, the in vitro antiprotozoal activities of the indicated compounds were measured as percentage inhibition of Leishmania donovani amastigote infecteda mouse peritoneal macrophages, Trypanosoma cruzi amastigote infected macrophages, and Trypanosoma brucei extracellular bloodstream forms.
# [5] = system: Leishmania donovani amastigote infected mouse peritoneal macrophages; experiment: In vitro antiprotozoal activity, Leishmania donovani; type: cell-based
# Method: as §2
# [6] = molecular target: T2, Cathepsin B from human placenta (Homo sapiens, UniProt P07858); experiment: Inhibition of cathepsin B, Z-Arg-Arg-AMC fluorescence progress curves; type: biochemical; conditions: for Ki: corrected for substrate; for k/KI (kirr/KI): values without asterisk, 25° C., pH 6.2
# T2 construct: Cathepsin B from human placenta, obtained from Sigma; purchased Sigma; host or cells: human placenta (tissue)
# How it was run: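 Human placental enzyme (~10 nM) in 50 mM phosphate pH 6.2 with 2.5 mM DTT and 2.5 mM EDTA, 50 μM Z-Arg-Arg-AMC, inhibitors 30-0.001 μM, 25° C. AMC fluorescence (ex 380/em 460 nm) progress curves fitted for kobs; kobs/[I] reported, with kirr, KI and kirr/KI substrate-corrected for selected compounds.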
# [7] = system: Trypanosoma cruzi amastigote infected macrophages; experiment: In vitro antiprotozoal activity, Trypanosoma cruzi; type: cell-based
# Method: as §2
# Cloned cathepsin S = molecular target: T3, Cloned cathepsin S (Homo sapiens, UniProt P25774); experiment: Inhibition of cathepsin S, Z-Val-Val-Arg-AMC fluorescence progress curves; type: biochemical
# T3 construct: made in house
# How it was run: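 Progress curves at 25 °C in 100 mM phosphate pH 6.5, 2.5 mM DTT, 2.5 mM EDTA, 0.01% Triton, enzyme <1 nM, 10 μM substrate, inhibitors 30-0.001 μM; AMC fluorescence ex 380/em 460 nm. kobs from nonlinear fits gave kobs/[I]; selected compounds yielded kirr, KI (substrate-corrected), kirr/KI.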
# calpain = experiment: Inhibition (inactivation) of calpain, Suc-Leu-Tyr-AMC; type: biochemical; conditions: values marked * (or %); pH 7.5, 5 mM CaCl2, 25° C.
# Method: The inhibitors were tested against calpain at 1 or 2% as for the other enzymes. The reaction conditions were 50 mM Tris, pH 7.5, 5 mM CaCl2, 2.5 mM DTT, assayed at 25° C. The substrate was 100 μM Suc-Leu-Tyr-AMC.
# Sequence of cruzain, from T. cruzi (P25779 123-337 limits assumed): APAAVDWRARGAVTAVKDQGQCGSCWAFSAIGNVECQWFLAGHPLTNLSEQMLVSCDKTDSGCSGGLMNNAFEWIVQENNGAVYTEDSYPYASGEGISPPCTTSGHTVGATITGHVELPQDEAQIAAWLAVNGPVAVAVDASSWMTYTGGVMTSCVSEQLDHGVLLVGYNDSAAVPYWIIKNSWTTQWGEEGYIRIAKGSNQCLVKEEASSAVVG
# T3 sequence (P25774 115-331): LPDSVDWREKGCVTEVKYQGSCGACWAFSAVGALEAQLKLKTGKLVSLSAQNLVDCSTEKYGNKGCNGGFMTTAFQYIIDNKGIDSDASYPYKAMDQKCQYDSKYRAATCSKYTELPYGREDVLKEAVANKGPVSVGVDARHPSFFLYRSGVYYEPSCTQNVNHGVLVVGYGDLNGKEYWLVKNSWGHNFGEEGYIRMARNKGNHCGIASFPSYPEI
# T1 sequence (P07154 114-288 limits assumed): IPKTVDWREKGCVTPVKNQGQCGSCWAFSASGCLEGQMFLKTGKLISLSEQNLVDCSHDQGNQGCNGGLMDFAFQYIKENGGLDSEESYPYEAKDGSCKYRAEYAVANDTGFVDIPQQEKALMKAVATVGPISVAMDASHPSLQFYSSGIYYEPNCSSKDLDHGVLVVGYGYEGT
# T1 sequence (P07154 291-334 limits assumed): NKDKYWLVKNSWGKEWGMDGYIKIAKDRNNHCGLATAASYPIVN
Molecule,IC50 ([1]; cells printed in nM) [nM],IC50 ([2]; cells printed in nM) [nM],kirr [3] [s⁻¹],Ki [3] [µM],"k/KI (kirr/KI) ([3]; 25° C., pH 6.2)","percentage inhibition, T. brucei ([4]; 3 uM) [%]","percentage inhibition, T. brucei ([4]; 10 uM) [%]","percentage inhibition, T. brucei ([4]; 30 uM) [%]","percentage inhibition, T. brucei ([4]; 90 uM) [%]","percentage inhibition, L. donovani ([5]; 3 uM) [%]","percentage inhibition, L. donovani ([5]; 10 uM) [%]","percentage inhibition, L. donovani ([5]; 30 uM) [%]","percentage inhibition, L. donovani ([5]; 90 uM) [%]",kirr [6] [s⁻¹],Ki [6] [µM],k/KI (kirr/KI) [6],"percentage inhibition, T. cruzi ([7]; 3 uM) [%]","percentage inhibition, T. cruzi ([7]; 10 uM) [%]","percentage inhibition, T. cruzi ([7]; 30 uM) [%]","percentage inhibition, T. cruzi ([7]; 90 uM) [%]",further results
"COC(=O)C1CCCN1C(=O)C(CC(C)C)NC(=O)/C=C/[C@H](CCc1ccccc1)NC(=O)[C@H](Cc1ccccc1)NC(=O)N1CCOCC1 (stereo partly drawn) [Mu-Phe-HphVAMLeu-ProOMe, (S)-(E)-(N-leucylprolinemethylester)-4-(4-morpholinecarbonylphenyl-alanyl)amino-6-phenyl-2-hexenamide]",600,80,–,–,–,–,–,–,–,–,–,–,–,–,–,–,–,–,–,–,–
"O=C(NCCCC[C@@H](/C=C/S(=O)(=O)c1ccccc1)NC(=O)[C@H](Cc1ccccc1)NC(=O)N1CCOCC1)OCc1ccccc1 [Mu-Phe-Lys(Z)VSPh, (S)-(E)-7-(benzyloxycarbonyl)amino-3-(4-morpholinecarbonylphenylalanyl)-amino-1-phenylsulfonyl-1-heptene]",80,100,0.45,3.8,"120,000 M^-1 sec^-1",29.9,81.3,100,100,0,0,0,0,0.18,4.7,"39,200 M^-1 sec^-1",0,0,0,0,"k/KI (kirr/KI) (cruzain, from T. cruzi; values without asterisk): 44,500 M^-1 sec^-1; ED50, T. brucei [4]: 3.64 µM; percentage inhibition, T. brucei ([4]; 1 uM): 19.8%; kirr (Cloned cathepsin S): 0.14 s⁻¹; Ki (Cloned cathepsin S; corrected for substrate): 0.054 µM; k/KI (kirr/KI) (Cloned cathepsin S; values without asterisk, 25° C., pH 6.5): 2,600,000 M^-1 sec^-1"
(S)-(E)-4-(4-morpholinecarbonylphenylalanyl)amino-6- phenyl-2-hexenoic acid [Mu-Phe-HphVA],–,–,–,–,–,–,–,–,–,–,–,–,–,0.038,85,450 M⁻¹ s⁻¹,–,–,–,–,IC50 ([1]; cells printed in μM): 2000 nM; IC50 ([2]; cells printed in μM): 1000 nM
(S)-(E)-Benzyl 4-(4-morpholinecarbonylphenylalanyl)amino-6-phenyl-2-hexenamide [Mu-Phe-HphVAMBzl],–,200,–,–,–,0,0,0,0,0,0,14.2,23.3,–,–,< 100 M⁻¹ s⁻¹,0,0,0,5.83,"kobs /[I]* (approximate second-order inactivation constant) ([3]; values marked *, 25° C., pH 6.2): 2800 M⁻¹ s⁻¹; kobs /[I]* (approximate second-order inactivation constant) (cruzain, from T. cruzi): 70,200 M^-1 sec^-1; kobs /[I]* (calpain): < 50 M⁻¹ s⁻¹; IC50 ([1]; cells printed in μM): 2000 nM; kobs /[I]* (approximate second-order inactivation constant) (Cloned cathepsin S; values marked *, 25° C., pH 6.5): 10,800 M^-1 sec^-1"
ethyl (S)-(E)-4-(4-morpholinecarbonylphenylalanyl)-amino-6-phenyl-2-hexenoate [Mu-Phe-HphVEOEt],300,300,0.10,2.2,"47,500 M^-1 sec^-1",–,–,–,–,–,–,–,–,0.19,19,"10,100 M^-1 sec^-1",–,–,–,–,"kobs /[I]* (approximate second-order inactivation constant) (cruzain, from T. cruzi): 80,400 M^-1 sec^-1"
